pIC50: −log10 of the molar value. Entries after “also recorded” stand apart in the source; their conditions may differ.

The results in this text go back to EP0421819A1, “Therapeutic nucleosides” (THE WELLCOME FOUNDATION LIMITED, priority 1989, dated 1991).

What all share (type): cell-based
The test system of assay [1] is HIV. Kind of assay: Activity against HIV infections (general statement, no method given at that place). As to conditions: general statement in the description.
Assay [2] has as its system HIV-1. In words: Anti-HIV activity by the method of Averett (J.Virol.Methods 23, 263-276). As to conditions: against HIV-1; n=7; read-out: average IC₅₀. As to the method: (§1) Anti-HIV activity was determined by the method of Averett, D.R., J.Virol.Methods, 23 263-276 (1989).
For assay [3], the system named is HIV-2. Described as above. The settings on record: against HIV-2; n=6; read-out: average IC₅₀. As to the method:
as §1

In assay [4] the test system is Hepatitis B Virus (HBV). In words: Antiviral activity against HBV in the HBV producer cell line HepG2 2.2.15 (Dane particle DNA and intracellular replicative intermediates). As to conditions: for anti-HBV activity: general statement in the description, no concentration given. As to the method:
The human HBV producer cell line of HepG2, 2.2 15, described and characterised by Sells et al., PNAS 84:1005, 1987 and J. Virol. […] This cell line was utilised in vitro to identify compounds with anti-HBV activity.
To test compounds for antiviral activity, monolayer cultures were treated with compound, 50-200 µM, for ten days. Supernatant media containing extracellular virion DNA (Dane particles), were harvested on days three, six and ten, treated with proteinase K(1 mg/mL) and sodium dodecyl sulfate (1%), and incubated at 50 °C for one hour. DNA was extracted with equal volumes of phenol followed by chloroform and then precipitated by ammonium acetate and propanol. The DNA precipitate was dissolved and collected on nitrocellulose using the procedure of Schieicher and Schuell (S & S, 10 Optical Ave., Keene, NH 03431, Publication #700, 1987), and treated as described by Southern, J. Mol. Biol. 98:503, 1975. Cells were harvested, and the intracellular DNA was obtained after cell lysis with guanidine isothiocyanate. The intracellular DNA was handled in the same manner as the extracellular DNA. After precipitation by ammonium acetate and propanol, the intracellular DNA precipitate was dissolved, cut by restriction endonuclease, Hind III, applied to agarose gel and then treated as described by Southern to determine the quantity of replicative intermediate forms. The antiviral effect of the drug was determined by measuring at least a 100-fold reduction of the amount of Dane particles extruded into the culture and a similar decrease in the intracellular replicative intermediates.

As for `Nc1nc(NCC2CC2)c2ncn([C@H]3CC[C@@H](CO)O3)c2n1` [Example 42, 2-Amino-6-(cyclopropylmethylamino)purine-9-β-D-2′,3′-dideoxy ribofuranoside], in assay [1], the “activity against HIV infections” value was “exceptionally potent activity”. Also, the pIC50 in assay [2] was 4.75; in assay [3], 4.88. The “inhibition of HBV” value in assay [4] (at 100 µM, monolayer cultures treated for ten days) is “strong inhibition”. Moreover, the anti-HBV activity result in assay [4] (listed as Compound 41) is “surprisingly high; also recorded: exceptionally potent activity”.

With `Nc1nc(NC2CC2)c2ncn([C@H]3CC[C@@H](CO)O3)c2n1` [Compound 34, 2-Amino-6-cyclopropylaminopurine-9-β-D-2,′3′-dideoxyribofuranoside], in assay [4], the anti-HBV activity result is “surprisingly high”.

For `CCCOc1nc(N)nc2c1ncn2[C@H]1CC[C@@H](CO)O1` [Compound 9, 2-Amino-6-n-propoxypurine-9-β-D-2′,3′-dideoxyribofuranoside], the anti-HBV activity entry in assay [4] is reported as “surprisingly high”.
